# Measured values published in patent US11447486B2, “2-amino-benzimidazole derivatives and their use as 5-lipoxygenase and/or prostaglandin E synthase inhibitors” (INSTITUT PASTEUR KOREA, priority 2014, dated 2022).
# Like-named read-outs stand apart in the source and are kept apart here.
# Tests used:
# human 5-LOX = molecular target: T1, human 5-LOX (Homo sapiens, UniProt P09917); assay: 5-LOX enzyme activity, fluorescence method (5-HPETE, H2DCFDA); type: biochemical; conditions: read-out: 5-LO (IC50)
# T1 construct: purchased Cayman 60402; host or cells: insect cells (lysate)
# T1 sequence (P09917 1-674): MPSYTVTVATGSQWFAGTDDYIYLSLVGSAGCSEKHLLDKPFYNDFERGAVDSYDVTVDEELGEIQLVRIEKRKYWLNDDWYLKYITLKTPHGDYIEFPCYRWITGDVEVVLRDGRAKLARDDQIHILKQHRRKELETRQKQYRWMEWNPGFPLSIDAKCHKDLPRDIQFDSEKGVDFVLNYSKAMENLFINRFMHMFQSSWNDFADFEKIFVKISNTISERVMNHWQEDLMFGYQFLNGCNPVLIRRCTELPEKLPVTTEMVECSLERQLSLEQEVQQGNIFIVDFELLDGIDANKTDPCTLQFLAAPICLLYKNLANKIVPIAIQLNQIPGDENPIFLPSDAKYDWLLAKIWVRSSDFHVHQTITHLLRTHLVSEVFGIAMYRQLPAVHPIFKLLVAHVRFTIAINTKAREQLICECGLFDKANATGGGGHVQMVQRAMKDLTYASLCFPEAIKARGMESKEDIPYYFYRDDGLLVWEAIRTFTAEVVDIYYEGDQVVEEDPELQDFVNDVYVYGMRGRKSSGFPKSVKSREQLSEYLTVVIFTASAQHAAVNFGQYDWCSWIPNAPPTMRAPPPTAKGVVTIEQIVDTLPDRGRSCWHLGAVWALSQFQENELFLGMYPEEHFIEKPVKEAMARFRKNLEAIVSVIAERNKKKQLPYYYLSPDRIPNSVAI
# Description: The activity of compounds against 5-LOX were determined by measuring LTB4 (leukotriene B4) levels and/or by a fluorescence method. Both approaches are outlined in more detail below;
# The compound, in a dose response manner(0.5 nM to 10 uM), and enzyme mixture was pre-incubated for 5 minutes, and the enzymatic reaction was initiated by addition of ATP and arachidonic acid to a final concentration of 100 uM and 3 uM, respectively. […] All steps were carried out at room temperature.
# [1] = tested on: Rat basophilic leukemia (RBL) cells; assay: LTB4 secretion assay in RBL (rat basophilic leukemia cells); type: cell-based
# Description: Rat basophilic leukemia (RBL) cells (ATCC, Cat #CRL-2256) were maintained in EMEM (ATCC, Cat #30-2003) supplemented with 15% FBS. The day before RBL assay, cells were seeded at a concentration of 2×10^4 cells per well in 96-well plates. The media was replaced with 100 ul of EMEM supplemented with 0.5% FBS and compounds in dose response(5 nM to 100 uM) were added. After 15 min of pre-incubation at 37° C., arachidonic acid and calcium ionophore (A23187) were added to give a final concentration of 2.5 uM and 5 uM, respectively. After a further 10 min incubation at 37° C., culture supernatant was transferred and quantification of LTB4 was done with a Leukotriene B4 EIA kit (Cayman, Cat #520111) as instructed.
SMILES,IC50 (human 5-LOX) [µM],"EC50 ([1]; Rattus norvegicus, RBL) [µM]",EC50 [1] [µM]
CCC(Nc1nc2ccc(Nc3cc(C(F)(F)F)n(C)n3)cc2n1C)c1ccc(Oc2cnc(C(F)(F)F)cn2)cc1 (stereo not shown) [Compound 522],> 10,< 10,
Cn1c(NCc2ccc(-n3ccc4cc(Cl)cnc43)cc2)nc2ccc(N)cc21 [Compound 445],< 1,< 10,
COCCNc1ccc2nc(NCc3ccc(Oc4ccc(Cl)cn4)cc3)n(C)c2c1 [Compound 316],< 1,< 10,
Cn1c(NCc2ccc(Oc3ccccn3)cc2)nc2ccc(N)cc21 [Compound 346],< 1,< 10,
Cn1c(NCc2ccc(Oc3ccc(Cl)cn3)cc2)nc2ccc(NC(C)(C)CO)cc21 [Compound 325],< 1,< 10,
Cn1c(N2CCC(COc3ccc(Cl)cc3)CC2)nc2ccc(N)cc21 [Compound 163],< 1,> 20,
Cn1c(NCc2ccc(Oc3ccc4cccc(Cl)c4n3)cc2)nc2ccc(N)cc21 [Compound 421],< 1,< 10,
COc1nc(Oc2ccc(CNc3nc4ccc(N)cc4n3C)cc2)ncc1Cl [Compound 454],< 1,10 to 20,
Cn1ccnc1C(=O)c1ccc(CNc2nc3ccc(N)cc3[nH]2)cc1 [Compound 173],< 1,> 20,
Cn1c(NCc2ccc(Oc3ncc(N)cn3)cc2)nc2ccc(N)cc21 [Compound 376],< 1,> 20,
CN(C)c1nc2ccc(NCc3ccc(N(CC(N)=O)c4ccc(F)cc4)cc3)cc2[nH]1 [Compound 212],< 1,< 10,
FC(F)(F)Oc1ccc(OC2CCN(c3ccc4nc(NCCCN5CCOCC5)[nH]c4c3)C2)cc1 (stereo not shown) [Compound 142],< 1,10 to 20,
Cn1c(NCc2ccc(Oc3ncc4cccc(Cl)c4n3)cc2)nc2ccc(N)cc21 [Compound 436],< 1,< 10,
Cn1c(NCc2ccc(Oc3ccnc4c(Cl)cccc34)cc2)nc2ccc(N)cc21 [Compound 387],< 1,< 10,
Cn1c(NCc2ccc(Oc3ccc(Cl)cn3)cn2)nc2ccc(N)cc21 [Compound 299],< 1,< 10,
Cn1c(NCc2ccc(Oc3ccc4cccc(Cl)c4n3)cc2)nc2ccc(NC3COC3)cc21 [Compound 422],< 1,< 10,
CC(C)c1cc(CNc2nc3ccc(NC4COC4)cc3n2C)ccc1Oc1ncc(Cl)cn1 [Compound 396],< 1,< 10,
Cn1c(NCc2ccc(Oc3ncc(Cl)c(C4CC4)n3)cc2)nc2ccc(NC3COC3)cc21 [Compound 398],< 1,< 10,
Nc1ccc2nc(N)n(Cc3ccc(Oc4ccc(Cl)cc4)nc3)c2c1 [Compound 240],< 1,< 10,
CC(Nc1nc2ccc(N)cc2n1C)c1ccc(Oc2ccc(Cl)cn2)cc1 (stereo not shown) [Compound 260],< 1,< 10,
Cc1cc(Nc2ccc3nc(NCc4ccc(Oc5ncc(Cl)cn5)cc4)[nH]c3c2)n[nH]1 [Compound 485],< 1,10 to 20,
Nc1ccc2nc(NCc3ccc(C(=O)c4ccccn4)cc3)[nH]c2c1 [Compound 141],< 1,> 20,
CN(C)c1nc2cc(Nc3ccn(C)n3)ccc2n1CCOc1ccc(OC(F)(F)F)cc1 [Compound 46],> 10,< 10,
Clc1ccc(OC(CNc2nc3ccc(NC4COC4)cc3[nH]2)c2ccccc2)cc1 (stereo not shown) [Compound 180],< 1,< 10,
Nc1ccc2nc(NCc3coc(Cc4ccc(Cl)cc4)n3)[nH]c2c1 [Compound 186],< 1,< 10,

SMILES,IC50 (human 5-LOX) [µM],"EC50 ([1]; Rattus norvegicus, RBL) [µM]",EC50 [1] [µM]
Cn1c(N(CCO)Cc2ccc(Oc3ccc(Cl)cn3)cc2)nc2ccc(N)cc21 [Compound 317],< 1,> 20,
CCC(Nc1nc2ccc(N)cc2n1C)c1ccc(Oc2ccc(Cl)cn2)cc1 (stereo not shown) [Compound 274],< 1,< 10,
Cn1c(NCc2ccc(Oc3ncc(Cl)cn3)cc2)nc2ccc(NCc3ncccn3)cc21 [Compound 365],< 1,< 10,
Nc1ccc2nc(NCCC(F)(F)F)n(Cc3ccc(Oc4ccc(Cl)cc4)cc3)c2c1 [Compound 264],< 1,< 10,
COCCN(Cc1ccc(Oc2ccc(Cl)cn2)cc1)c1nc2ccc(N)cc2n1C [Compound 338],< 1,> 20,
Cn1c(NCc2ccc(-n3ccc4cc(Cl)cnc43)cc2)nc2ccc(NC3COC3)cc21 [Compound 446],< 1,< 10,
Cn1c(NCc2ccc(Oc3ccccn3)cc2)nc2ccc(NC3COC3)cc21 [Compound 347],< 1,< 10,
Cn1c(NCc2ccc(Oc3ncc(Cl)cn3)cc2)nc2ccc(NC3CN(C(=N)N)C3)cc21 [Compound 443],< 1,> 20,
CN(C(=O)c1ccc(CNc2nc3ccc(NC4COC4)cc3n2C)cc1)c1ccc(Cl)cn1 [Compound 320],< 1,> 20,
Cn1c(NCc2ccc(Oc3ccc(C(F)(F)F)cn3)cc2)nc2ccc(N)cc21 [Compound 276],< 1,< 10,
CC(Cc1ccc(Cl)cc1Cl)Nc1nc2ccc(N)cc2n1Cc1ccccc1 (stereo not shown) [Compound 140],< 1,< 10,
Nc1ccc2[nH]c(NCc3ccc(N4CCOC(COc5ccc(OC(F)(F)F)cc5)C4)nc3)nc2c1 (stereo not shown) [Compound 222],< 1,10 to 20,
Cn1c(NCc2ccc(Oc3ccc4cc(Cl)ccc4n3)cc2)nc2ccc(N)cc21 [Compound 389],< 1,< 10,
FC(F)(F)Oc1ccc(OCCn2c(N3CCCC3)nc3ccc(N4CCC4)cc32)cc1 [Compound 84],< 1,< 10,
Cc1cc(CNc2nc3ccc(N)cc3n2C)ccc1Oc1ccc(Cl)cn1 [Compound 282],< 1,< 10,
Cn1c(NCc2ccc(Oc3ncc(Cl)cn3)cc2)nc2ccc(NC(N)=O)cc21 [Compound 429],> 10,10 to 20,
Cn1c(NCc2ccc(Oc3cc(Cl)ncn3)cc2)nc2ccc(N)cc21 [Compound 393],< 1,< 10,
Cn1c(NCc2ccc(Oc3nc4ccccc4n3C)cc2)nc2ccc(N)cc21 [Compound 356],< 1,10 to 20,
Cc1cc(Nc2ccc3nc(NCc4ccc(Oc5ncc(Cl)cn5)cc4)[nH]c3c2)n[nH]1 [Compound 484],< 1,,> 20
CCn1c(NCc2ccc(Oc3ccc(Cl)cn3)cc2)nc2ccc(Nc3cc(C(F)(F)F)n(C)n3)cc21 [Compound 511],> 10,< 10,
Cn1c(NCc2ccc(Oc3ncc(Cl)cn3)cc2F)nc2ccc(N)cc21 [Compound 380],< 1,< 10,
Nc1ccc2nc(N3CCC(F)(F)C3)n(CCOc3ccc(OC(F)(F)F)cc3)c2c1 [Compound 100],< 1,< 10,
CCC(Nc1nc2ccc(NC3COC3)cc2n1C)c1ccc(Oc2ncc(Cl)cn2)cc1 (stereo not shown) [Compound 453],< 1,< 10,
Cn1c(NCc2ccc(Oc3ncc4c(Cl)cccc4n3)cc2)nc2ccc(NC3COC3)cc21 [Compound 435],< 1,< 10,
Nc1ccc2c(c1)nc(N1CCCC1)n2CCc1ccc(F)cc1 [Compound 50],1 to 10,10 to 20,
